Assay [1] concerns Carrageenan-induced rat paw oedema. In words: Test B: Carrageenan-induced rat paw oedema test. The format is in vivo, rat (female). Conditions: inhibition of paw oedema, 1 h before carrageenan, 3 h after injection; for inhibition in vivo at 100 mg/kg: Rattus norvegicus, po, 3 h; for Test B % inhibition at 100 mg/kg: oral. Here is the method: Carrageenan-induced rat paw oedema test
Female rats, weight range 125-150 g were fasted overnight. One of the hind legs of each animal was marked with a line at the connection between the cuboid/navicular and calcaneus/talus bones. Groups of six rats were orally dosed at 10 ml/kg, in random order, with a given dose of the test compound given as a solution or suspension in 10% (w/v) aqueous acacia solution.
One hour after dosing, 0.1 ml of 1% (w/v) sterile carrageenan λ in normal saline was injected deeply into the plantar surface of the marked hind foot of each rat. The volume of the foot (up to the marked line) was measured immediately after injection using duplicate water displacement readings. Three hours after injection the foot volume was measured again and the percentage increase in foot volume relative to the initial reading was calculated.
The increase in foot volume (i.e. the degree of oedema) in drug treated animals when compared with that in the drug untreated control gave the degree of inhibition of paw oedema by the drug.
Compounds were considered to be active in this test if they produced a 20% or greater inhibition of paw oedema in at least two out of three tests after oral dosing at 100 mg/kg. Statistical significance was assessed using the Student't test for single dose studies and Dunnett's test for multiple dose studies. More advantageous compounds were active in both Tests A and B,

The subject of assay [2] is Zymosan Stimulated Macrophaqes. In words: Test A: Inhibition of Arachidonic Acid Release from Zymosan Stimulated Macrophages. The format is cell-based, mouse (female MF1). The note with it: inhibition of arachidonic acid release, six concentrations (100, 50, 20, 10, 5 and 1 μM), 5 h with zymosan, read-out: Test A IC50. As for the experimental part:
Inhibition of Arachidonic Acid Release from Zymosan Stimulated Macrophaqes
Female MF1 mice (weighing 20 to 25 g) were killed using a rising concentration of CO2. The mice were laid on their backs and the abdomens wiped with 70% alcohol. The skin was pulled back, exposing the peritoneal wall. Medium A (5 ml) (see below) was injected into the peritoneal cavity of each mouse followed by approximately 1 ml of air using a 20 ml syringe and a 21 G×40 mm needle in order to form a suspension of macrophage cells. The medium and cells were then removed using a 19 G×40 mm needle. The resulting suspension was returned to a sterile beaker kept on ice. The extracts from all the mice were pooled and this pooled cell suspension was counted using a Coulter counter and adjusted to a final cell count of 1-1.3×10^6 cells/ml prior to labelling with [^3 H]-arachidonic acid. Typically five mice provided sufficient cells for each multiwell plate.
Sufficient [^3 H]-arachidonic acid in ethanol to give a final concentration of 1.6 μCi/ml (equivalent to 40 μCi/plate) was blown to dryness under nitrogen. The arachidonic acid was then resuspended in 1 or 2 ml of the cell suspension which was then mixed with the remainder of the cell suspension in a centrifuge bottle. The labelled cell suspension was then plated out into sterile plastic 96 flat-bottomed well plates (250 μl per well) and incubated overnight at 37° C. in a moist atmosphere of 5% CO2, 95% air.
The following day, non-adherent cells were removed by washing 3 times with sterile phosphate buffered saline (PBS). The adherent peritoneal macrophages were then cultured for a further 24 hours in the presence or absence of drugs, in medium B (see below) at 37° in a 5% CO2 atmosphere in order to measure the effects of drugs on the spontaneous release of arachidonic acid in the absence of stimulus. After this incubation, supernatants were removed to give media 1 and stored in sealed multi-well plates at 4° C. prior to scintillation counting. Drugs which potentiated spontaneous release of arachidonic acid (125% of controls) were deemed to be toxic at the concentration at which this phenomenon occurred. The supernatants were replaced by fresh medium C containing fresh drug and a stimulus. Three drugs were tested at six concentrations (100, 50, 20, 10, 5 and 1 μM) in replicates of four on each plate. The other wells contained controls consisting of a positive control (e.g. dexamethasone), medium (B) only and medium C only.
Incubation was then continued for a further 5 hours, whereupon the supernatants were collected to give media 2 and the adherent cells washed with PBS. The cells were then lysed with 100 μl of 0.1% TRITON® X100 in a 0.1% solution of bovine serum albumin in 0.9% saline and mechanically disrupted to give cell lysates. These supernatants (media 2) and cell lysates (Cells) were also stored in sealed multi-well plates at 4° C. prior to scintillation counting. 200 μl aliquots of media, or 100 μl aliquots of cells were counted using 2 ml of OPTIPHASE "HIGH SAFE" (Trademark of LKB) as scintillant.
The percentage of arachidonic acid released was calculated using the mean values for each group of 4 wells in the following equation. [formula] cpm=courts per minute
The value for the arachidonic acid release in the absence of stimulus (spontaneous, cpm of media 2) from cells which had been exposed to neither stimulus nor drug was subtracted from all equivalent values (cpm media 2, stimulated with or without drug) to give the net stimulated release. The percentage inhibition of arachidonic acid release caused by a drug may then be calculated using the following equation. [formula]
Compounds of formula I were tested at six concentrations (100, 50, 20, 10, 5 and 1 μM) and IC50 values calculated. Compounds with IC50 values<100 μM are considered to be active. Advantageous compounds have an IC50 value <50 μM.
Medium A (for peritoneal lavage) […]

Counter-ions that a name gives are not always drawn. Like-named read-outs stand apart in the source and are kept apart here.

Take `CC(NCCCn1ccnc1)c1ccc(Cl)cc1` (stereo not drawn) [Example 1, N-[1-(4-chlorophenyl)ethyl]-3-(imidazol-1-yl)propylamine dihydrochloride]: at 100 mg/kg the inhibition in vivo in assay [1] was 59%. For the same molecule, in assay [2] (Mus musculus, Macrophage, 5 h), the concentration for half-maximal inhibition (IC50) came out at 55 µM.

Molecule `CCc1nccn1CCCNC(C)c1ccc(Cl)cc1` (stereo not drawn) [Example 53, N-[1-(4-Chlorophenyl)ethyl]-3-(2-ethylimidazol-1-yl)propylamine dihydrochloride] showed an inhibition in vivo at 100 mg/kg in assay [1] of 27%. Further, in assay [2] (Mus musculus, Macrophage, 5 h), the IC50 was determined as 31 µM.

On to `CCC(CC)(NCCCn1ccnc1)c1ccc(Cl)cc1` [Example 76, 1-(4-Chlorophenyl)-1-ethyl-3'-(imidazol-1-yl)dipropylamine dihydrochloride], for which the inhibition in vivo at 100 mg/kg in assay [1] is 31%. In addition, the half-inhibitory concentration (IC50) in assay [2] (Mus musculus, Macrophage, 5 h) amounted to 15 µM.

Molecule `Cc1cn(CCCNC(C)c2ccc(Cl)cc2)c(C)n1` (stereo not drawn) [Example 31, N-[1-(4-chlorophenyl)ethyl]-3-(2,4-dimethylimidazol-1-yl)propylamine dihydrochloride] displayed an inhibition in vivo at 100 mg/kg in assay [1] of 25%. Besides, the IC50 in assay [2] (Mus musculus, Macrophage, 5 h) was found to be 10 µM.

In assay [1], `CCC(c1ccc(Cl)cc1)N(C)CCCn1ccnc1` (stereo not drawn) [Example 91, N-[1-(4-chlorophenyl)propyl]-3-(imidazol-1-yl)-N-methylpropylamine] displayed an inhibition in vivo at 100 mg/kg of 58%. Moreover, the IC50 in assay [2] (Mus musculus, Macrophage, 5 h) is 62 µM.

In assay [1], `CCOC(=O)c1c(C)ncn1CCCNC(C)(C)c1ccc(Cl)cc1` [Example 78, Ethyl 1-{3-[1-(4-chlorophenyl)-1-methylethylamino]propyl)-4-methylimidazole-5-carboxylate] returned an inhibition in vivo at 100 mg/kg of 7%. Besides, the IC50 in assay [2] (Mus musculus, Macrophage, 5 h) amounted to 20 µM.

Consider `CC(NCCCn1ccnc1)c1ccc(Cl)cc1` (single isomer, unassigned; (-)) [Example 92, (-) N-[1-(4-chlorophenyl)ethyl]-3-(imidazol-1-yl)propylamine (-)-ditartrate], for which the “Test B % inhibition at 100 mg/kg” value in assay [1] worked out at 48%. Further, in assay [2], the IC50 amounted to 20 µM.

`CCC(CC)(NCCCn1ccnc1)c1ccccc1` [Example 80, N-(1-Ethyl-1-phenylpropyl)-3-(imidazol-1-yl)propylamine] registered an inhibition in vivo at 100 mg/kg in assay [1] of 52%. Moreover, the IC50 in assay [2] (Mus musculus, Macrophage, 5 h) turned out to be 54 µM.

As for `Clc1ccc(C(NCCCn2ccnc2)c2ccccc2)cc1` (stereo not drawn) [Example 28, N-[α-(4-chlorophenyl)benzyl]-3-(imidazol-1-yl)propylamine], in assay [1], the inhibition in vivo at 100 mg/kg was found to be 48%. Moreover, the IC50 in assay [2] (Mus musculus, Macrophage, 5 h) worked out at 11 µM.

For the molecule `CCc1nccn1CCCNCc1ccc(Cl)cc1` [Example 72, N-(4-Chlorobenzyl)-3-(2-ethylimidazol-1-yl)propylamine], the inhibition in vivo at 100 mg/kg in assay [1] worked out at 18%. The IC50 in assay [2] (Mus musculus, Macrophage, 5 h) turned out to be 26 µM.

Take `CC(NCCCn1ccnc1)c1ccc(Cl)cc1` (single isomer, unassigned; (+)) [Example 93, (+)N-[1-(4-chlorophenyl)ethyl]-3-(imidazol-1-yl)-propylamine (+) ditartrate]: in assay [1], the “Test B % inhibition at 100 mg/kg” value worked out at 57%. Also, the IC50 in assay [2] worked out at 16 µM.

The molecule `Cc1ccc(C(C)(C)NCCCn2ccnc2C)cc1` [Example 73, 3-(2-Methylimidazol-1-yl)-N-[1-methyl-1-(p-tolyl)ethyl]propylamine dihydrochloride] came in with an inhibition in vivo at 100 mg/kg in assay [1] of 8%. Moreover, in assay [2] (Mus musculus, Macrophage, 5 h), the IC50 turned out to be 49 µM.

Take `Clc1ccc(CNCCCn2ccnc2)c(Cl)c1` [Example 41, N-(2,4-Dichlorobenzyl)-3-(imidazol-1-yl)propylamine]: the inhibition in vivo at 100 mg/kg in assay [1] was 29%. In assay [2] (Mus musculus, Macrophage, 5 h), the IC50 is 58 µM.

Regarding `CC(C)(NCCCn1ccnc1)c1ccc(Cl)cc1` [Example 59, N-[1-(4-chlorophenyl)-1-methylethyl]-3-(imidazol-1-yl)propylamine], the inhibition in vivo at 100 mg/kg in assay [1] was found to be 65%. The IC50 in assay [2] (listed as 68 (1)) and in assay [2] was 35 µM each time.

For `CC(NCCCn1ccnc1)c1ccc(Cl)cc1Cl` (stereo not drawn) [Example 2, N-[1-(2,4-Dichlorophenyl)ethyl]-3-(imidazol-1-yl)propylamine], the inhibition in vivo at 100 mg/kg in assay [1] was 37%. Further, the IC50 in assay [2] (Mus musculus, Macrophage, 5 h) amounted to 39 µM.

Molecule `Cc1nccn1CCCNCc1ccc(Cl)cc1` [Example 43, N-(4-Chlorobenzyl)-3-(2-methylimidazol-1-yl)propylamine] came in with an inhibition in vivo at 100 mg/kg in assay [1] of 33%. Further, in assay [2] (Mus musculus, Macrophage, 5 h), the IC50 is 49 µM.

As for `CC(C)c1nccn1CCCNCc1ccc(Cl)cc1` [Example 71, N-(4-Chlorobenzyl)-3-(2-isopropylimidazol-1-yl)propylamine-dihydrochloride], the inhibition in vivo at 100 mg/kg in assay [1] came out at 10%. In addition, the IC50 in assay [2] (Mus musculus, Macrophage, 5 h) was 25 µM.

In assay [1], `CCOC(=O)C=Cc1ccc(CNCCCn2ccnc2C)cc1` [Example 51, ethyl 4-[3-(2-methylimidazol-1-yl)propylaminomethyl]cinnamate dihydrochloride] registered an inhibition in vivo at 100 mg/kg of 1%. Further, the IC50 in assay [2] (Mus musculus, Macrophage, 5 h) was 20 µM.

With `CC(NCCCCCn1ccnc1)c1ccc(Cl)cc1` (stereo not drawn) [Example 55, N-[1-(4-Chlorophenyl)ethyl]-5-(imidazol-1-yl)pentylamine dioxalate], in assay [1], testing at 100 mg/kg gave an inhibition in vivo of 45%. Further, the IC50 in assay [2] (Mus musculus, Macrophage, 5 h) was determined as 32 µM.

For the molecule `CC(C)(NCCCn1ccnc1)c1ccc(Cl)cc1.Cl.Cl` [68 (2), N-[1-(4-chlorophenyl)-1-methylethyl]-3-(imidazol-1-yl)propylamine dihydrochloride], in assay [1], the “Test B % inhibition at 100 mg/kg” value was found to be 70%. For the same molecule, the IC50 in assay [2] (dihydrochloride) turned out to be 43 µM.

Regarding “N-[1-(4-Chlorophenyl)ethyl]-3-(4/5-methylimidazol-1-yl)propylamine [Example 54]”, the “Test B % inhibition at 100 mg/kg” value in assay [1] was 63%. Further, the IC50 in assay [2] amounted to 12 µM.

In assay [1], `Cc1nc(C)n(CCCNC(C)c2ccc(Cl)cc2)c1C` (stereo not drawn) [Example 66, N-[1-(4-Chlorophenyl)ethyl]-3-(2,4,5-trimethylimidazol-1-yl)propylamine] returned an inhibition in vivo at 100 mg/kg of 13%. Also, in assay [2] (Mus musculus, Macrophage, 5 h), the IC50 turned out to be 13 µM.

Turning to `Cc1cn(CCCNCc2ccc(Cl)cc2)cn1` [Example 44, N-(4-Chlorobenzyl)-3-(4-methylimidazol-1-yl)propylamine dihydrochloride], the inhibition in vivo at 100 mg/kg in assay [1] stood at 8%. Besides, the IC50 in assay [2] (Mus musculus, Macrophage, 5 h) is 30 µM.

Take `Cc1nccn1CCCNC(C)c1ccc(Cl)cc1` (stereo not drawn) [Example 52, N-[1-(4-chlorophenyl)ethyl]-3-(2-methylimidazol-1-yl)propylamine]: the “Test B % inhibition at 100 mg/kg” value in assay [1] is 27%.

The record behind these values is patent US5547972A, “Therapeutic agents useful for treating inflammatory diseases” (The Boots Company PLC, priority 1991, dated 1996).
